# Results reported in patent US20250353841A1 (BIOGEN MA INC., priority 2022, published 2025).
# System: mutant Huntington (HTT) protein
# Assay: HTT Mutant HTRF iPSC assay (mHTT protein lowering)
# Assay type: cell-based
# Conditions: human iPSC derived from a HTT patient with a poly-Q49 mutation
row,Compound,IC50
1,"Cc1cn2nc(-c3cc(F)c4nn(C5CCN(C)CC5)cc4c3)cc(C)c2n1 [Compound 362, 6-(7-fluoro-2-(1-methylpiperidin-4-yl)-2H-indazol-5-yl)-2,8-dimethylimidazo[1,2-b]pyridazine]",< 100 nM
2,"Cc1cn2nc(-c3cc(F)c4nc(NC(=O)C5CCNC(C)C5)nn4c3)cc(C)c2n1 (stereo not shown) [Compound 322, N-(6-(2,8-dimethylimidazo[1,2-b]pyridazin-6-yl)-8-fluoro-[1,2,4]triazolo[1,5-a]pyridin-2-yl)-2-methylpiperidine-4-carboxamide]",100 to 1000 nM
3,"Cc1cn2cc(-c3cc(F)c4nn(C5CCNCC5)nc4c3)cc2c(C)n1 [Compound 378, 6-(1,3-dimethylpyrrolo[1,2-a]pyrazin-7-yl)-4-fluoro-2-(piperidin-4-yl)-2H-benzo[d][1,2,3]triazole]",100 to 1000 nM
4,"CCN1CCC(N(C)c2nc3c(F)cc(-c4cc(C)c5nc(C)cn5n4)cc3o2)CC1C (stereo not shown) [Compound 503, 6-(2,8-dimethylimidazo[1,2-b]pyridazin-6-yl)-N-(1-ethyl-2-methylpiperidin-4-yl)-4-fluoro-N-methylbenzo[d]oxazol-2-amine]",< 100 nM
5,"Cc1cn2nc(-c3cc(F)c4nc(C5CCN(C)C5)cn4c3)cc(C)c2n1 (single isomer, unassigned) [Compound 186]",100 to 1000 nM
6,"Cc1cn2nc(-c3cc(F)c4nc(NC(=O)[C@H]5[C@@H]6CN(C)C[C@@H]65)cn4c3)cc(C)c2n1 [Compound 262, (1R,5S,6r)-N-(6-(2,8-dimethylimidazo[1,2-b]pyridazin-6-yl)-8-fluoroimidazo[1,2-a]pyridin-2-yl)-3-methyl-3-azabicyclo[3.1.0]hexane-6-carboxamide]",< 100 nM
7,"COc1cc2cc(-c3cc(F)c4nc(C5CCNCC5)cn4c3)ccc2cn1 [Compound 164, 6-(8-fluoro-2-(piperidin-4-yl)imidazo[1,2-a]pyridin-6-yl)-3-methoxyisoquinoline]",100 to 1000 nM
8,"Cc1cn2cc(-c3cc(F)c4[nH]c(C5CCNCC5)nc4c3)cc(C)c2n1 [Compound 147, 5-(2,8-dimethylimidazo[1,2-a]pyridin-6-yl)-7-fluoro-2-(piperidin-4-yl)-1H-benzo[d]imidazole]",1000 to 9000 nM
9,"Cc1cn2nc(-c3cc(F)c4nc(N5CCNCC5)cn4c3)cc(C)c2n1 [Compound 127, 6-(8-fluoro-2-piperazin-1-yl-imidazo[1,2-a]pyridin-6-yl)-2,8-dimethyl-imidazo[1,2-b]pyridazine]",1000 to 9000 nM
10,"CN1C(=O)Cc2ccc(-c3cc(F)c4nc(C5CCNCC5)cn4c3)cc21 [Compound 55, 6-(8-fluoro-2-(piperidin-4-yl)imidazo[1,2-a]pyridin-6-yl)-1-methylindolin-2-one]",1000 to 9000 nM
11,"Cc1cn2cc(-c3cc(OC(F)F)c4nc(C5CCNCC5)cn4c3)cc(F)c2n1 [Compound 536, 8-(difluoromethoxy)-8′-fluoro-2′-methyl-2-(piperidin-4-yl)-6,6′-biimidazo[1,2-a]pyridine]",100 to 1000 nM
12,"Cn1nc2cc(-c3cc(F)c4[nH]c(C5CCNCC5)nc4c3)cc(F)c2n1 [Compound 148, 4-fluoro-6-(7-fluoro-2-(piperidin-4-yl)-1H-benzo[d]imidazol-5-yl)-2-methyl-2H-benzo[d][1,2,3]triazole]",100 to 1000 nM
13,"Cc1cn2nc(-c3cc(F)c4nn(C5CCC6(CCNC6)C5)nc4c3)cc(C)c2n1 (stereo not shown) [Compound 396, 6-(2,8-dimethylimidazo[1,2-b]pyridazin-6-yl)-4-fluoro-2-(2-azaspiro[4.4]nonan-7-yl)-2H-benzo[d][1,2,3]triazole]",100 to 1000 nM
14,Cc1cn2nc(-c3cc(F)c4nc(C56CC(C5)N(C)C6)cn4c3)cc(C)c2n1 [Compound 80],100 to 1000 nM
15,"Cc1cn2nc(-c3cc(F)c4nc(N5CCC6(CCN(C)CC6)C5)oc4c3)cc(C(F)(F)F)c2n1 [Compound 520, 4-fluoro-6-(2-methyl-8-(trifluoromethyl)imidazo [1,2-b]pyridazin-6-yl)-2-(8-methyl-2,8-diazaspiro[4.5]decan-2-yl)benzo[d]oxazole]",< 100 nM
16,"Cc1nc2c(C)cc(-c3cc(F)c4nc(N5CCC6(CCN(C)CC6)C5)oc4c3)nn2n1 [Compound 498, 6-(2,8-dimethyl-[1,2,4]triazolo[1,5-b]pyridazin-6-yl)-4-fluoro-2-(8-methyl-2,8-diazaspiro[4.5]decan-2-yl)benzo[d]oxazole]",100 to 1000 nM
17,"Cc1cn2nc(-c3cc(F)c4nc(NC(=O)[C@H]5[C@@H]6CNC[C@@H]65)cn4c3)cc(C)c2n1 [Compound 246, (1R,5S,6r)-N-(6-(2,8-dimethylimidazo[1,2-b]pyridazin-6-yl)-8-fluoroimidazo[1,2-a]pyridin-2-yl)-3-azabicyclo[3.1.0]hexane-6-carboxamide]",< 100 nM
18,"COCCCN1CCC(c2cn3cc(-c4cc(C)c5nc(C)cn5n4)cc(F)c3n2)CC1 [Compound 45, 6-(8-fluoro-2-(1-(3-methoxypropyl)piperidin-4-yl)imidazo[1,2-a]pyridin-6-yl)-2,8-dimethylimidazo[1,2-b]pyridazine]",< 100 nM
19,Cc1cn2nc(-c3cn4cc(C5CC6CCC(C5)N6)cc(F)c4n3)cc(C)c2n1 (stereo not shown) [Compound 130],1000 to 9000 nM
20,Cn1cc2cc(-c3cc(F)c4nc(C56CNC(C5)C6)cn4c3)cc(F)c2n1 [Compound 67],1000 to 9000 nM
21,"CC(=O)N1CCC(c2cn3cc(-c4cc(C)c5nc(C)cn5n4)cc(F)c3n2)CC1 [Compound 74, 1-[4-[6-(2,8-dimethylimidazo[1,2-b]pyridazin-6-yl)-8-fluoro-imidazo[1,2-a]pyridin-2-yl]-1-piperidyl]ethanone]",100 to 1000 nM
22,"Cc1nc2c(C(F)(F)F)cc(-c3cc(F)c4nn(C5CCNCC5)nc4c3)nn2n1 [Compound 391, 6-(7-fluoro-2-(piperidin-4-yl)-2H-benzo[d][1,2,3]triazol-5-yl)-2-methyl-8-(trifluoromethyl)-[1,2,4]triazolo[1,5-b]pyridazine]",< 100 nM
23,"Cc1cn2nc(-c3cc(F)c4nc(C(=O)NC5CN(CC6CC6)C5)cn4c3)cc(C)c2n1 [Compound 339, N-[1-(cyclopropylmethyl)azetidin-3-yl]-6-(2,8-dimethylimidazo[1,2-b]pyridazin-6-yl)-8-fluoro-imidazo[1,2-a]pyridine-2-carboxamide]",< 100 nM
24,"Cc1cc(-c2cc(F)c3nc(C4CCNCC4)nn3c2)cc2cn(C)nc12 [Compound 432, 6-(2,7-dimethyl-2H-indazol-5-yl)-8-fluoro-2-(piperidin-4-yl)-[1,2,4]triazolo[1,5-a]pyridine]",100 to 1000 nM
25,"Fc1cc(-c2ccc3nn(C(F)F)cc3c2)cn2cc(C3CCNCC3)nc12 [Compound 36, 2-(difluoromethyl)-5-(8-fluoro-2-(piperidin-4-yl)imidazo[1,2-a]pyridin-6-yl)-2H-indazole]",1000 to 9000 nM
26,"CCN1CCC(n2nc3cc(-c4cc(C)c5nc(C)cn5n4)cc(F)c3n2)CC1 [Compound 376, 6-(2,8-dimethylimidazo[1,2-b]pyridazin-6-yl)-2-(1-ethyl-4-piperidyl)-4-fluoro-benzotriazole]",100 to 1000 nM
27,Cc1cn2nc(-c3cc(F)c4nc(NC(=O)C5CC56CNC6)nn4c3)cc(C)c2n1 (stereo not shown) [Compound 318],1000 to 9000 nM
28,"Cc1nc2c(F)cc(-c3cc(F)c4nc(C5CCNCC5)cn4c3)cc2s1 [Compound 90, 4-fluoro-6-(8-fluoro-2-(piperidin-4-yl)imidazo[1,2-a]pyridin-6-yl)-2-methylbenzo[d]thiazole]",1000 to 9000 nM
